Values belong to the compound of their own block, whether it stands above or below them.
Key:
Type in all cases: cell-based
[1] = test system: murine macrophage indicator cell line, RAW267.4; assay: Inhibition of PGE2 production in LPS-stimulated macrophages (EIA); details: single substances, RAW267.4 cells, LPS 1 μg/ml, 24 hours
Experimental: (§1) Pure substances were then further assayed in vitro in cellular cell systems. The inhibition of the synthesis of nitric oxide and/or pro-inflammatory prostaglandins (PG) by the compounds was measured. PGE2 plays a critical role in the inflammation process, while nitric oxide (NO) is a hallmark of inflammation in various chronic inflammatory diseases including various forms of arthritis, gastro-intestinal diseases and metabolic syndrome X. The effects of compounds on the inflammatory response were tested in cellular assays using a murine macrophage indicator cell line, RAW267.4. The cells were purchased from ATCC (Manassas, Va., USA) and cultured in DMEM containing streptomycin/penicillin, non-essential amino acids and 10% fetal calf serum (FCS). In order to test a large range of concentration of compounds, cells (˜50,000/well) were seeded into flat-bottomed microtiter plates and cultured for one day. Cells were then starved in complete medium containing 0.25% FCS (D-025). After overnight culture, medium was removed and replaced by 100 μL of D-025 containing the test compounds at twice the final concentration. Subsequently, 100 μL of D-025 containing 2 μg/ml LPS was added (i.e. final LPS concentration of 1 μg/ml) and the cells cultured for 24 hours.
(§2) Substances were tested in a concentration range from 0.2 to 50 μM in two-fold dilution steps. Extracts were tested from 0.2 to 50 mg/L. All treatments were done in duplicates and several experimental series were done for each treatment. Concentrations of nitrite which was rapidly formed from nitric oxide released by cells were determined by the Griess reaction using sodium nitrite as standard. Briefly, 50 μl of supernatant was mixed with Griess reagent 1 (25 μL) and Griess reagent 2 (25 μL), centrifuged and the optical density at 540 nm determined. PGE2 secreted into the cell culture medium was determined by EIA obtained from Cayman Chemicals (Ann Harbor, […]., USA) and used according to the manufacturer's instructions. All determinations were done in duplicates and at various dilutions of the culture supernatant. IC50 values were calculated using a […] least-square fitting equation [y=A+((B−A)/(1+((C−x)̂D))] for best-fit curves (Excel fit software program).

[2] = test system: murine macrophage indicator cell line, RAW267.4; assay: Inhibition of nitric oxide production in LPS-stimulated macrophages (Griess reaction); details: single substances, RAW267.4 cells, LPS 1 μg/ml, 24 hours
Experimental: as §1, §2

NF-κB1 = assay: Expression of inflammatory genes by quantitative RT-PCR: NF-κB1; details: RAW 264.7 cells, 4 hours
Experimental: (§3) The effect of the compounds has been evaluated on the level of the expression of genes that are involved in the inflammatory response. These comprise e.g. the following genes TNF-α, IL-6, MIP1β and NF-κB1 and NF-κBp49, the latter two of which are transcription factors involved in the regulation of inflammatory gene expression. After 4 hours, RNA was extracted and the expression of genes determined by quantitative RT-PCR as described (Richard, N., Porath, D., Radspieler, A. and Schwager, J. Effects of resveratrol, piceatannol, tri-acetoxystilbene, and genistein on the inflammatory response of human peripheral blood leukocytes. Mol Nutr Food Res 2005. 49: 431-442).

NF-κBp49 = assay: Expression of inflammatory genes by quantitative RT-PCR: NF-κBp49; details: RAW 264.7 cells, 4 hours
Experimental: as §3

TNF-α = assay: Expression of inflammatory genes by quantitative RT-PCR: TNF-α; details: RAW 264.7 cells, 4 hours
Experimental: as §3

IL-6 = assay: Expression of inflammatory genes by quantitative RT-PCR: IL-6; details: RAW 264.7 cells, 4 hours
Experimental: as §3

[3] = test system: macrophage inflammatory protein 1 [MIP-1]; assay: Expression of inflammatory genes by quantitative RT-PCR: MIP-1; details: RAW 264.7 cells, 4 hours
Experimental: as §3

SMILES: C=CC/C=C\C/C=C\CCCCCCCc1cccc(O)c1C(=O)O [(15:3)-Anacardic acid]
IC50 [1]: 26.6 ± 21.1 µM
IC50 [2]: 7.4 ± 0.4 µM
% expression NF-κB1 mRNA relative to cells stimulated with LPS only (NF-κB1; 6.25 μM/L): 86%
% expression NF-κB1 mRNA relative to cells stimulated with LPS only (NF-κB1; 12.5 μM/L): 78%
% expression NF-κBp49 mRNA relative to cells stimulated with LPS only (NF-κBp49; 6.25 μM/L): 74%
% expression NF-κBp49 mRNA relative to cells stimulated with LPS only (NF-κBp49; 12.5 μM/L): 57%
% expression TNF-α mRNA relative to cells stimulated with LPS only (TNF-α; 6.25 μM/L): 76%
% expression TNF-α mRNA relative to cells stimulated with LPS only (TNF-α; 12.5 μM/L): 54%
Effect on TNF-α expression (in words) (TNF-α): significantly reduced
% expression IL-6 mRNA relative to cells stimulated with LPS only (IL-6; 6.25 μM/L): 65%
% expression IL-6 mRNA relative to cells stimulated with LPS only (IL-6; 12.5 μM/L): 71%
% expression MIP-1-α mRNA relative to cells stimulated with LPS only ([3]; 6.25 μM/L): 58%
% expression MIP-1-α mRNA relative to cells stimulated with LPS only ([3]; 12.5 μM/L): 41%
Effect on MIP-1β expression (in words) [3]: significantly reduced

SMILES: C=CC/C=C\C/C=C\CCCCCCCc1cc(O)cc(O)c1 [Cardoltriene]
IC50 [1]: 0.9 ± 0.2 µM
IC50 [2]: 4.9 ± 0.8 µM

SMILES: CCCCCC/C=C\CCCCCCCc1cccc(O)c1C(=O)O [Ginkoic acid, Ginkgoic acid]
IC50 [1]: 57.8 µM
IC50 [2]: > 100 µM

SMILES: CCC/C=C\C/C=C\CCCCCCCc1cccc(O)c1C(=O)O [(15:2)-Anacardic acid]
IC50 [1]: 43.1 ± 5.5 µM
IC50 [2]: 82.4 ± 6.7 µM

More lines, now with the values ahead:

IC50 ([1]; Mus musculus): 24 ± 2 µM
IC50 ([2]; Mus musculus): 31 ± 2 µM
SMILES: Oc1ccc(C=Cc2cc(O)cc(O)c2)cc1 [Resveratrol, reference compound]

IC50 [1]: 35 µM
IC50 [2]: 33 ± 2 µM
SMILES: O=C(O[C@@H]1Cc2c(O)cc(O)cc2O[C@@H]1c1cc(O)c(O)c(O)c1)c1cc(O)c(O)c(O)c1 [EGCG, reference compound]

Reference: US20090186942A1, “NOVEL NUTRACEUTICAL AND PHARMACEUTICAL COMPOSITIONS AND USE THEREOF FOR THE TREATMENT, CO-TREATMENT OR PREVENTION OF INFLAMMATORY DISORDERS” (priority 2006, published 2009)
